# Source: patent US20250154173A1 (Merck Sharp & Dohme LLC, priority 2023, published 2025)
# Target: T1, GST-RIPK1 (recombinant GST-RIPK1 kinase domain (residues 1-327)) (Homo sapiens, UniProt Q13546)
# T1 construct: recombinant GST-RIPK1 kinase domain (residues 1-327) enzyme produced from baculovirus-transfected Sf21 cells; host or cells: baculovirus-transfected Sf21 insect cells
# T1 sequence (Q13546 1-327): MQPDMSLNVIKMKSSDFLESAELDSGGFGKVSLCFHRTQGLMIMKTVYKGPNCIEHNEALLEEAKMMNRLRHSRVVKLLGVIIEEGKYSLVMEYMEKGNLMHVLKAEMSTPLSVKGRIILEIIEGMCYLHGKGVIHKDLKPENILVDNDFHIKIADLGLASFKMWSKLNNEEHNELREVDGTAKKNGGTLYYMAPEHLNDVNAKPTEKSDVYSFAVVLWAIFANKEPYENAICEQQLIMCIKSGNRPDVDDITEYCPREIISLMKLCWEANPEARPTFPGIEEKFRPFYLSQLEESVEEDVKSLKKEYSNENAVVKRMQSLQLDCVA
# Experiment: RIPK1-ADP-Glo Enzymatic Assay
# Type: biochemical
# Conditions: ten-point titration, top compound concentration of 100000 nM; 25 nM GST-RIPK1, 300 μM ATP, 3 μM dephosphorylated-MBP; 30 min pre-incubation, 150 min reaction
# Outline: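 GST-RIPK1 kinase domain (residues 1-327, Sf21-expressed), 25 nM, preincubated 30 min with compound, then reacted 150 min with 300 μM ATP and 3 μM dephosphorylated MBP in pH 7.3 Hepes buffer, 1% DMSO. ADP measured by ADP-Glo luminescence; EC50 from ten-point titration (top 100000 nM), four-parameter fit.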
row,SMILES,EC50 [nM]
1,"COc1ccc(COC2CC3(C2)OC2CC[C@@H](c4cnccn4)N2C3=O)cn1 (stereo partly drawn) [Example 18.70, (5′S)-3-[(6-methoxypyridin-3-yl)methoxy]-5′-(pyrazin-2-yl)tetrahydro-3′H-spiro[cyclobutane-1,2′-pyrrolo[2,1-b][1,3]oxazol]-3′-one]",150
2,"O=C1N2C(CC[C@H]2c2cnccn2)OC12CC(OCc1csc(C3CC3)n1)C2 (stereo partly drawn) [Example 18.71, (5′S)-3-[(2-cyclopropyl-1,3-thiazol-4-yl)methoxy]-5′-(pyrazin-2-yl)tetrahydro-3′H-spiro[cyclobutane-1,2′-pyrrolo[2,1-b][1,3]oxazol]-3′-one]",796
3,"COc1ccc(C#N)nc1COC1CC2(C1)OC1CC[C@@H](c3cnccn3)N1C2=O (stereo partly drawn) [Example 18.75, 5-methoxy-6-({[(5′S)-3′-oxo-5′-(pyrazin-2-yl)tetrahydro-3′H-spiro[cyclobutane-1,2′-pyrrolo[2,1-b][1,3]oxazol]-3-yl]oxy}methyl)pyridine-2-carbonitrile]",896
4,"O=C1N2C(CC[C@H]2c2cnccn2)OC12CC(OCc1cccc(Cn3ccnn3)c1)C2 (stereo partly drawn) [Example 18.76, (5′S)-5′-(pyrazin-2-yl)-3-({3-[(1H-1,2,3-triazol-1-yl)methyl]phenyl}methoxy)tetrahydro-3′H-spiro[cyclobutane-1,2′-pyrrolo[2,1-b][1,3]oxazol]-3′-one]",168
5,"O=C1N2C(CC[C@H]2c2cnccn2)OC12CC(OCc1cncc(OCCF)c1)C2 (stereo partly drawn) [Example 18.77, (5′S)-3-{[5-(2-fluoroethoxy)pyridin-3-yl]methoxy}-5′-(pyrazin-2-yl)tetrahydro-3′H-spiro[cyclobutane-1,2′-pyrrolo[2,1-b][1,3]oxazol]-3′-one]",174
6,"N#CC1(c2ccc(COC3CC4(C3)OC3CC[C@@H](c5cnccn5)N3C4=O)cn2)CCC1 (stereo partly drawn) [Example 18.78, 1-[5-({[(5′S)-3′-oxo-5′-(pyrazin-2-yl)tetrahydro-3′H-spiro[cyclobutane-1,2′-pyrrolo[2,1-b][1,3]oxazol]-3-yl]oxy}methyl)pyridin-2-yl]cyclobutane-1-carbonitrile]",721
7,"COc1ccc2cc(COC3CC4(C3)OC3CC[C@@H](c5cnccn5)N3C4=O)ncc2n1 (stereo partly drawn) [Example 18.81, (5′S)-3-[(2-methoxy-1,7-naphthyridin-6-yl)methoxy]-5′-(pyrazin-2-yl)tetrahydro-3′H-spiro[cyclobutane-1,2′-pyrrolo[2,1-b][1,3]oxazol]-3′-one]",756
8,"O=C1N2C(CC[C@H]2c2cnccn2)OC12CC(OCc1cc(Cl)ccc1-c1cnco1)C2 (stereo partly drawn) [Example 18.82, (5′S)-3-{[5-chloro-2-(1,3-oxazol-5-yl)phenyl]methoxy}-5′-(pyrazin-2-yl)tetrahydro-3′H-spiro[cyclobutane-1,2′-pyrrolo[2,1-b][1,3]oxazol]-3′-one]",99
9,"O=C1N2C(CC[C@H]2c2cnccn2)OC12CC(OCc1cccc3nccn13)C2 (stereo partly drawn) [Example 18.84, (5′S)-3-[(imidazo[1,2-a]pyridin-5-yl)methoxy]-5′-(pyrazin-2-yl)tetrahydro-3′H-spiro[cyclobutane-1,2′-pyrrolo[2,1-b][1,3]oxazol]-3′-one]",182
10,O=C1N2C(CC[C@H]2c2cnccn2)OC12CC(OCc1cc(-n3ccnc3)ccn1)C2 (stereo partly drawn) [Example 18.87],583
11,"N#Cc1ccc(OC2CCC2)cc1COC1CC2(C1)OC1CC[C@@H](c3cnccn3)N1C2=O (stereo partly drawn) [Example 18.88, 4-(cyclobutyloxy)-2-({[(5′S)-3′-oxo-5′-(pyrazin-2-yl)tetrahydro-3′H-spiro[cyclobutane-1,2′-pyrrolo[2,1-b][1,3]oxazol]-3-yl]oxy}methyl)benzonitrile]",169
12,"COc1ccc2cc(COC3CC4(C3)OC3CC[C@@H](c5cnccn5)N3C4=O)cc(C)c2n1 (stereo partly drawn) [Example 18.89, (5′S)-3-[(2-methoxy-8-methylquinolin-6-yl)methoxy]-5′-(pyrazin-2-yl)tetrahydro-3′H-spiro[cyclobutane-1,2′-pyrrolo[2,1-b][1,3]oxazol]-3′-one]",238
13,"O=C1N2C(CC[C@H]2c2cnccn2)OC12CC(OCc1cnc3c(c1)CCCC3)C2 (stereo partly drawn) [Example 18.90, (5′S)-5′-(pyrazin-2-yl)-3-[(5,6,7,8-tetrahydroquinolin-3-yl)methoxy]tetrahydro-3′H-spiro[cyclobutane-1,2′-pyrrolo[2,1-b][1,3]oxazol]-3′-one]",780
14,"O=C1N2C(CC[C@H]2c2cnccn2)OC12CC(OCc1ccc3c(c1)CCO3)C2 (stereo partly drawn) [Example 18.92, (5′S)-3-[(2,3-dihydro-1-benzofuran-5-yl)methoxy]-5′-(pyrazin-2-yl)tetrahydro-3′H-spiro[cyclobutane-1,2′-pyrrolo[2,1-b][1,3]oxazol]-3′-one]",243
15,"N#Cc1ccncc1COC1CC2(C1)OC1CC[C@@H](c3cnccn3)N1C2=O (stereo partly drawn) [Example 18.93, 3-({[(5′S)-3′-oxo-5′-(pyrazin-2-yl)tetrahydro-3′H-spiro[cyclobutane-1,2′-pyrrolo[2,1-b][1,3]oxazol]-3-yl]oxy}methyl)pyridine-4-carbonitrile]",329
16,"O=C1N2C(CC[C@H]2c2cnccn2)OC12CC(OCc1cnc3nccn3c1)C2 (stereo partly drawn) [Example 18.94, (5′S)-3-[(imidazo[1,2-a]pyrimidin-6-yl)methoxy]-5′-(pyrazin-2-yl)tetrahydro-3′H-spiro[cyclobutane-1,2′-pyrrolo[2,1-b][1,3]oxazol]-3′-one]",283

# The next lines start with the values.
row,EC50 [nM],SMILES
1,109,"O=C1N2C(CC[C@H]2c2cnccn2)OC12CC(OCc1ccc3nccn3c1)C2 (stereo partly drawn) [Example 18.69, (5′S)-3-[(imidazo[1,2-a]pyridin-6-yl)methoxy]-5′-(pyrazin-2-yl)tetrahydro-3′H-spiro[cyclobutane-1,2′-pyrrolo[2,1-b][1,3]oxazol]-3′-one]"
2,83,"O=C1N2C(CC[C@H]2c2cnccn2)OC12CC(OCc1cccc3cncc(F)c13)C2 (stereo partly drawn) [Example 18.72, (5′S)-3-[(4-fluoroisoquinolin-5-yl)methoxy]-5′-(pyrazin-2-yl)tetrahydro-3′H-spiro[cyclobutane-1,2′-pyrrolo[2,1-b][1,3]oxazol]-3′-one]"
3,111,"O=C1N2C(CC[C@H]2c2cnccn2)OC12CC(OCc1ccc3nc(C4CC4)cn3c1)C2 (stereo partly drawn) [Example 18.73, (5′S)-3-[(2-cyclopropylimidazo[1,2-a]pyridin-6-yl)methoxy]-5′-(pyrazin-2-yl)tetrahydro-3′H-spiro[cyclobutane-1,2′-pyrrolo[2,1-b][1,3]oxazol]-3′-one]"
4,92,"O=C1N2C(CC[C@H]2c2cnccn2)OC12CC(OCc1ccc(Cn3ccnc3)cc1)C2 (stereo partly drawn) [Example 18.74, (5′S)-3-({4-[(1H-imidazol-1-yl)methyl]phenyl}methoxy)-5′-(pyrazin-2-yl)tetrahydro-3′H-spiro[cyclobutane-1,2′-pyrrolo[2,1-b][1,3]oxazol]-3′-one]"
5,20,"N#CC1(c2ccc(COC3CC4(C3)OC3CC[C@@H](c5cnccn5)N3C4=O)c(Cl)c2)CC1 (stereo partly drawn) [Example 18.79, 1-[3-chloro-4-({[(5′S)-3′-oxo-5′-(pyrazin-2-yl)tetrahydro-3′H-spiro[cyclobutane-1,2′-pyrrolo[2,1-b][1,3]oxazol]-3-yl]oxy}methyl)phenyl]cyclopropane-1-carbonitrile]"
6,45,"O=C1N2C(CC[C@H]2c2cnccn2)OC12CC(OCc1ccc(-c3ccon3)cc1)C2 (stereo partly drawn) [Example 18.80, (5′S)-3-{[4-(1,2-oxazol-3-yl)phenyl]methoxy}-5′-(pyrazin-2-yl)tetrahydro-3′H-spiro[cyclobutane-1,2′-pyrrolo[2,1-b][1,3]oxazol]-3′-one]"
7,140,"COc1cc(COC2CC3(C2)OC2CC[C@@H](c4cnccn4)N2C3=O)cc2nccn12 (stereo partly drawn) [Example 18.83, (5′S)-3-[(5-methoxyimidazo[1,2-a]pyridin-7-yl)methoxy]-5′-(pyrazin-2-yl)tetrahydro-3′H-spiro[cyclobutane-1,2′-pyrrolo[2,1-b][1,3]oxazol]-3′-one]"
8,79,"O=C1N2C(CC[C@H]2c2cnccn2)OC12CC(OCc1ccc3cnccc3c1)C2 (stereo partly drawn) [Example 18.85, (5′S)-3-[(isoquinolin-6-yl)methoxy]-5′-(pyrazin-2-yl)tetrahydro-3′H-spiro[cyclobutane-1,2′-pyrrolo[2,1-b][1,3]oxazol]-3′-one]"
9,94,"COc1ccc(COC2CC3(C2)OC2CC[C@@H](c4cnccn4)N2C3=O)cc1CC#N (stereo partly drawn) [Example 18.86, [2-methoxy-5-({[(5′S)-3′-oxo-5′-(pyrazin-2-yl)tetrahydro-3′H-spiro[cyclobutane-1,2′-pyrrolo[2,1-b][1,3]oxazol]-3-yl]oxy}methyl)phenyl]acetonitrile]"
10,22,"O=C1N2C(CC[C@H]2c2cnccn2)OC12CC(OCc1cc3ncccc3s1)C2 (stereo partly drawn) [Example 18.91, (5′S)-5′-(pyrazin-2-yl)-3-[(thieno[3,2-b]pyridin-2-yl)methoxy]tetrahydro-3′H-spiro[cyclobutane-1,2′-pyrrolo[2,1-b][1,3]oxazol]-3′-one]"
11,130,"N#CCCc1ccc(COC2CC3(C2)OC2CC[C@@H](c4cnccn4)N2C3=O)cc1 (stereo partly drawn) [Example 18.95, 3-[4-({[(5′S)-3′-oxo-5′-(pyrazin-2-yl)tetrahydro-3′H-spiro[cyclobutane-1,2′-pyrrolo[2,1-b][1,3]oxazol]-3-yl]oxy}methyl)phenyl]propanenitrile]"
